Measured values from paper PMC2964380 (Bioorganic & medicinal chemistry, 2010).
Where two headings read alike, the source gives them in different places.

What was measured:
HIV-1 (IIIB) [1] = test: Inhibition of HIV-1; type: cell-based; conditions: Human immunodeficiency virus 1, IIIB, MT2, 120 h, read-out: Cell-Culture EC50
HIV-1 (IIIB) [2] = conditions: MT-2 cell culture, MTT assay; cited from earlier work

EC50 (HIV-1 (IIIB) [1]) [nM]	SMILES	EC50 (HIV-1 (IIIB) [2]) [nM]
42	COc1ccc(OC)c(CCNC(=S)Nc2ccc(Br)cn2)c1 [HI-236]	–
–	Cc1cn([C@H]2C=C[C@@H](CO)O2)c(=O)[nH]c1=O [d4T]	2000
